Measured values as given in BigSolDB 2.1.

O=C(O)c1cc(C(=O)O)cc(C(=O)O)c1
Details | solubility (mole fraction)
in ethanol, 302.89 K | 0.0207
in ethanol, 309.85 K | 0.0228
in ethanol, 312.83 K | 0.0237
in ethanol, 319.06 K | 0.0257
in ethanol, 324.5 K | 0.0277
in ethylene glycol, 305.44 K | 0.00826
in ethylene glycol, 310.56 K | 0.00951
in ethylene glycol, 315.85 K | 0.0112
in ethylene glycol, 321.33 K | 0.0131
in ethylene glycol, 326.03 K | 0.0147
in ethylene glycol, 331.84 K | 0.0178
in isobutanol, 306 K | 0.0078
in isobutanol, 310.65 K | 0.0086
in isobutanol, 314.94 K | 0.00926
in isobutanol, 319.87 K | 0.0104
in isobutanol, 324.75 K | 0.0117
in isobutanol, 330.58 K | 0.0132
in isopropanol, 305.77 K | 0.00706
in isopropanol, 311.02 K | 0.00798
in isopropanol, 315.67 K | 0.00869
in isopropanol, 320.61 K | 0.00949
in isopropanol, 324.58 K | 0.0104
in isopropanol, 330.39 K | 0.0117
in methanol, 298.21 K | 0.012
in methanol, 304.67 K | 0.0138
in methanol, 308.78 K | 0.0151
in methanol, 313.97 K | 0.0169
in water, 301.05 K | 0.00015
in water, 305.47 K | 0.00019
in water, 309.8 K | 0.00025
in water, 315.22 K | 0.00033
in water, 320.56 K | 0.00044
in water, 325.11 K | 0.00055
in water, 329.42 K | 0.00069
